Assay results as given in US20020143012A1, “Phenoxazine analogs useful as amyloid aggregation inhibitors and treatment of alzheimer's disease and disorders related to amyloidosis” (priority 2000, published 2002).
“And” between values parts separate entries of the source, which are not always exact repeats. Equal values may be shown once. Read-outs that look alike come from different tables or passages of the source.

Tests used:
Aβ(1-40) peptide = molecular target: T1, Aβ(1-40) peptide (Homo sapiens, UniProt P05067); experiment: BAPA (Beta-Amyloid Peptide Aggregation), pH 6.0, filtration endpoint; format: biochemical
T1 construct: 10 μL 0.5 mg/mL Aβ(1-40) peptide in 20% HFIP
Description: 3. BAPA (Beta-Amyloid Peptide Aggregation)
This assay is used to provide a measure of inhibition by a compound against the aggregation behavior of the beta amyloid peptide.
The purpose of this assay is to provide a higher volume method of assaying the amount of beta amyloid aggregation using an endpoint assay based on filtration. In this assay, hexafluoroisopropanol (HFIP) is used to break down the initial amyloid peptide to a monomer state and a concentration of 33 μM is used, a concentration which is high enough so that aggregation will occur at pH 6.0 in several hours.
β-Amyloid Peptide Aggregation, pH 6.0 (BAPA)
To a 96-well plate (Costar 3794) is added 25 μL 50 mM Phosphate Buffer (pH 6.0), 10 μL 0.5 mg/mL Aβ(1-40) peptide in 20% HFIP+0.1 μL/assay radioiodinated ^125I Aβ(1-40) [^125I Aβ(1-40)], and 1 μL of the compound to be tested, starting at […] with a concentration of DMSO<1%. The reaction is incubated for 2 to 4 hours at room temperature. The reaction is stopped with 200 μL of 50 mM phosphate buffer, pH 6.0, and filtered through a 0.2 μm 96-well filter plate (Millipore MAGU N22). The filter plate is washed with 100 μL of the same phosphate buffer. Aggregation is detected on a Microbeta counter after impregnating the filters with Meltilex (1450-441) and is corrected for background.

Aβ(1-42) = molecular target: T2, Aβ(1-42) (Homo sapiens, UniProt P05067); experiment: BATYM assay, Aβ(1-42) aggregation by Thioflavin T fluorescence; format: biochemical; conditions: Aβ1-42 final concentration 100 μM, 37° C. 1 day, ThT fluorescence; (P)/(Q) marks undefined
T2 construct: Required Aβ(1-42) (California Peptide) is dried from its hexafluoroisopropanol (HFIP) stock solution; purchased California Peptide
Description: Required Aβ(1-42) (California Peptide) is dried from its hexafluoroisopropanol (HFIP) stock solution. The Aβ(1-42) is dissolved in DMSO and then mixed with phosphate buffered saline (PBS) (pH 7.4). The mixed Aβ(1-42) solution is filtered with a GVWP 0.22 μm syringe filter (Millipore, Bedford, Mass.). The compound to be tested in DMSO (50 times concentrate) is put into each well (0.5 μL/well) of a 96-well plate. The Aβ(1-42) solution is added into each well (25 μL/well). The plate is centrifuged at 1000 g for 5 minutes and incubated at 37° C. for 1 day (Aβ1-42; final concentration 100 μM).
After incubation Thioflavin T (ThT) (30 μM) solution in glycine-NaOH buffer (pH 8.5, 50 mM) is added into each well (250 μL/well), fluorescence is measured (ex=440/20 nm, em=485/20 nm) using a fluorescence plate reader. The inhibitory activity is calculated as the reduction of fluorescence with the following formula:
Inhibition (%)={(F(Aβ)−F(Aβ+compound)}/{F(Aβ)−F(solvent−compound)}×100.
The IC50s are calculated by a curve-fitting program using the equation given below. The data is obtained from two different experiments in triplicate.
x=concentration of tested compound (M),

Aβ(1-40) [1] = molecular target: T3, Aβ(1-40) (Homo sapiens, UniProt P05067); experiment: BASST (Beta-Amyloid Self-seeding, Thioflavin T), inhibitors of self-seeded amyloid fibril growth; format: biochemical; conditions: 30 μM soluble Aβ(1-40), 37° C. 3 to 5 hours, thioflavin T fluorescence; replicate values
T3 construct: Soluble Aβ(1-40) peptide (Bachem, Torrance, Calif.); purchased Bachem, Torrance, Calif
Description: 2. BASST (Beta-Amyloid Self-seeding, Thioflavin T)
(§1) An assay for inhibitors of self-seeded amyloid fibril growth
(§2) Assay Buffer—50 mM sodium phosphate, pH 7.5, 100 mM NaCl, 0.02% NaN3, 1 M urea (filter and store at 4° C.)
Soluble Aβ(1-40)—2.2 mg/mL in deionized H2O (is stored in aliquots at −20° C.; is kept on ice when thawed) will self-seed after 1 week storage. Typically, the solution is stored until no lag phase is seen in the assay.
Final assay conditions: 30 μM soluble Aβ(1-40) in deionized water in assay buffer. Compound to be tested is dissolved in DMSO, typically 5 to 50 mM stock, such that the final concentration of DMSO is<1% v/v in the assay.
Assay: Reaction mixture for 50 assays (on ice) is comprised of 1 μL of soluble Aβ(1-40)+13.5 μL assay buffer per assay. The following are the amounts of the components of the reaction mixture that result in each of the 50 assay wells.
1) The reaction mix above is prepared by mixing the components and storing on ice.
2) 14.5 μL of reaction mixture is pipetted into each of 50 wells of a polystyrene U-bottom, 96-well microtiter plate (Corning 25881-96) on ice.
(§3) 3) 1.7 μL of diluted compound to be tested is added to each well in a column of eight, including solvent control. Serial 3-fold dilutions from 1 mM (100 μM final) in assay buffer−urea=7 dilutions+zero. Each 96-well plate can therefore accommodate 11 samples+1 Congo Red control (0.039-5 μM final in 2-fold steps).
4) The plate with aluminum film is sealed and incubated for 10 minutes on ice.
(§4) 5) The temperature is raised to 37° C. and incubated for 3 to 5 hours (depending on the lot of the peptide).
6) The aluminum film is removed and 250 μL/well of 5 μM thioflavin T (ThT) [T-3516, Sigma-Aldrich] is added in 50 mM glycine-NaOH, pH 8.5. Fluorescence is read on a plate reader (ex=440 nm/20 nm; em=485 nm/20 nm) within 5 minutes.

Aβ(1-40) [2] = molecular target: T3, Aβ(1-40); experiment: BASSR (Beta-Amyloid Self-Seeding Radioassay), inhibitors of self-seeded amyloid fibril growth; format: biochemical; conditions: 30 μM soluble Aβ(1-40), 125I-labeled Aβ(1-40), 37° C. 3 to 5 hours; replicate values; ppt = precipitate formed at the indicated concentration
Description: 1. BASSR (Beta-Amyloid Self-Seeding Radioassay)
as §1, §2
Soluble Aβ(1-40) peptide (Bachem, Torrance, Calif.)—2.2 mg/mL in […] deionized H2O (is stored in aliquots at −20° C.; is kept on ice when thawed) will self-seed after 1 week storage. Typically, the solution is stored until no lag phase is seen in the assay.
^125I-labeled Aβ(1-40)—150K to 350K cpm/μL in 100% acetonitrile−0.1% trifluoroacetic acid (TFA)—1% β-mercaptoethanol (aliquots stored at −20° C). ^125I-labeled Aβ(1-40) is made in accordance with the procedure set forth by LeVine H., III, in Neurobiol. Aging, 1995;16:755, which is hereby incorporated by reference, or this reagent may be purchased from Amersham, Arlington Heights, Ill.
Final assay conditions: 30 μM soluble Aβ(1-40) in deionized water in assay buffer+20K to 50K cpm ^125I-labeled Aβ (1-40) per assay. Compound to be tested is dissolved in dimethylsulfoxide (DMSO), typically 5 to 50 mM stock, such that the final concentration of DMSO is<1% v/v in the assay.
Assay: Reaction mixture for 50 assays (on ice) is comprised of 0.1 to 0.2 μL of ^125I-labeled A^125I-labeled Aβ(1-40)+1 μL of soluble Aβ(1-40)+13.5 μL assay buffer per assay. The following are the amounts of the components of the reaction mixture sufficient for 50 assay wells.
1) The reaction mixture of above is prepared by mixing components and storing on ice.
b 2) 14.5 μL of the reaction mixture is pipetted into each of 50 wells on a polypropylene U-bottom 96-well microtiter plate on ice (Costar 3794).
as §3
4) The plate with aluminum film (Beckman 538619) is sealed and incubated for 10 minutes on ice.
as §4
6) The aluminum film is removed and 200 μL/well of ice cold assay buffer with urea is added. The radiolabeled fibrils are collected by vacuum filtration through 0.2 μm pore size GVWP filters in 96-well plates (Millipore MAGV N22, Bedford, Mass.). The radioactivity of the filters is determined by using standard methods well-known to those skilled in the art.

[3] = 33 μM Aβ(1-40), pH 6.0, 2 to 4 hours at room temperature, (Q) mark undefined, read-out: BAPA (IC50 = μM)
[4] = marked (BAPA2), variant not described, read-out: BAPA (IC50 = μM), value marked (BAPA2)

T1 sequence (P05067 672-711): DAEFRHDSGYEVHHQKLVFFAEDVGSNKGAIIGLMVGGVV
T3 sequence (P05067 672-711): as above
T2 sequence (P05067 672-713): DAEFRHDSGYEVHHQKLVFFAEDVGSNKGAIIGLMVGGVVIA

## O=C(O)c1cc([N+](=O)[O-])cc2c1Nc1cc(-c3ccccc3)ccc1O2 [Compound 2, 3-nitro-8-phenylphenoxazinecarboxylic acid]
Aβ(1-40) peptide; [3]
  IC50: 5 µM
Aβ(1-42)
  IC50: 4.15 µM
Aβ(1-40) [1]
  IC50: 1 µM
Aβ(1-40) [2]
  IC50: 60 µM (2×) and 70 µM

## Nc1cc2c(c(C(=O)O)c1)Nc1ccc(CCCc3ccc(Cl)c(Cl)c3)cc1O2 [Compound 9, 3-Amino-7-[3-(3,4-dichlorophenyl)propyl]phenoxazine carboxylic acid]
Aβ(1-40) peptide; [3]
  IC50: 86 µM
Aβ(1-42)
  IC50: 8.75 µM
Aβ(1-40) [1]
  IC50: 3 µM
Aβ(1-40) [2]
  IC50: 60 µM and > 100 µM
other
  melting point: 213 to 216 °C

## O=C(/C=C/c1ccc2c(c1)Oc1cc([N+](=O)[O-])cc(C(=O)O)c1N2)c1ccc(Cl)c(Cl)c1 [Compound 6, 7-[3-(3,4-Dichlorophenyl)-3-oxoprop-1-enyl]-3-nitrophenoxazinecarboxylic acid]
Aβ(1-40) peptide; [3]
  IC50: > 100 µM
Aβ(1-42)
  IC50: 4.61 µM
Aβ(1-40) [1]
  IC50: 1 µM
Aβ(1-40) [2]
  IC50: 21 µM and 22 µM and 25 µM
other
  melting point: > 200 °C

## O=C(O)c1cc([N+](=O)[O-])cc2c1Nc1ccc(CCCc3ccc(Cl)c(Cl)c3)cc1O2 [Compound 7, 7-[3-(3,4-Dichlorophenyl)propyl]-3-nitrophenoxazine carboxylic acid]
Aβ(1-40) peptide; [3]
  IC50: > 100 µM
Aβ(1-42)
  IC50: 1.88 µM
Aβ(1-40) [1]
  IC50: 0.5 µM
Aβ(1-40) [2]
  IC50: 30 µM and 20 µM and 6 µM

## O=C(O)c1cc([N+](=O)[O-])cc2c1Nc1cc3ccccc3cc1O2 [Compound 21, 3-nitrobenzo[b]phenoxazinecarboxylic acid]
Aβ(1-40) peptide; [3]
  IC50: 67 µM
Aβ(1-42)
  IC50: 6.7 µM
Aβ(1-40) [1]
  IC50: 1 µM
Aβ(1-40) [2]
  IC50: 12 µM and 11 µM and 10 µM
other
  melting point: > 230 °C

## 3-Nitrophenoxazinecarboxylic acid [Compound 3]
Aβ(1-40) peptide; [3]
  IC50: 62 µM
Aβ(1-40) peptide; [4]
  IC50: > 100 µM
Aβ(1-40) [1]
  IC50: 13 µM (2×) and 40 µM (2×) and 23 µM (2×)
Aβ(1-40) [2]
  IC50: 8 µM

## O=C(O)c1cc([N+](=O)[O-])cc2c1Nc1ccc(CCC(O)c3ccc(Cl)c(Cl)c3)cc1O2 (stereo not shown) [Compound 8, 7-[3-(3,4-Dichlorophenyl)-3-hydroxypropyl]-3-nitrophenoxazine carboxylic acid]
Aβ(1-40) peptide; [3]
  IC50: 100 µM
Aβ(1-42)
  IC50: 4.18 µM
Aβ(1-40) [1]
  IC50: 0.6 µM
Aβ(1-40) [2]
  IC50: > 100 µM and 100 µM (2×)
other
  melting point: 218 to 220 °C

## O=C(O)c1cc(OCc2ccccc2)cc2c1Nc1ccccc1O2 [Compound 4, 3-(Phenylmethoxy)phenoxazinecarboxylic acid]
Aβ(1-40) peptide; [4]
  IC50: > 50 µM
Aβ(1-40) [1]
  IC50: 8.4 µM and 45 µM (2×) and 8.44 µM
Aβ(1-40) [2]
  IC50: 14 µM

## O=C(O)c1cc([N+](=O)[O-])cc2c1Nc1ccc(CCc3ccc(Cl)c(Cl)c3)cc1O2 [Compound 5, 7-[2-(3,4-dichlorophenyl)ethyl]-3-nitrophenoxazinecarboxylic acid]
Aβ(1-40) peptide; [3]
  IC50: 0.9 µM
Aβ(1-42)
  IC50: 7.89 µM and 3.02 µM
Aβ(1-40) [1]
  IC50: 3 µM and 1 µM
Aβ(1-40) [2]
  IC50: 60 µM and > 100 µM
other
  melting point: > 250 °C
